Holding throughout (type): cell-based
For test [1], the system named is human atrial trabeculae. Description: Ischemia/reperfusion of suprafused human atrial trabeculae: postischemic developed force. The following applies: N=7, I/R alone 35%. As for the experimental part:
(§1) Isolated Atrial Trabeculae Patients undergoing elective coronary artery bypass surgery with a pump oxygenator require insertion of a canula into the right atrium. At that time, a small segment of the right atrial appendage is routinely excised and discarded. Trabeculae were obtained from this discarded tissue. Human atrial tissue was placed in oxygenated modified Tyrode's buffer solution at 4° C. Modified Tyrode's solution was prepared daily with deionized distilled water and contained D-glucose at 5.0 mmol/liter, CaCl2 at 2.0 mmol/liter, NaCl at 118.0 mmol/liter, KCl at 4.0 mmol/liter, MgSO4.7H2O at 1.2 mmol/liter, NaHCO3 at 25.0 mmol/liter, and NaH2PO4 at 1.2 mmol/liter. […]
Experimental Design Trabeculae were equilibrated for 90 min to increase the baseline stretch force to 1,000 mg and to allow stabilization of developed force. […] Contractions were monitored by force transducers (Grass FT03) and recorded with a computerized preamplifier and digitizer (MacLab Quad Bridge, MacLab/8e, AD Instruments, Milford, Mass.) and continuously monitored with a Macintosh computer. […]
Statisical Analysis Data are expressed as the mean±SEM. Mean changes in developed force were calculated relative to the control value at 90 min for each patient's tissue. Statistical significance of differences between groups were determined by factorial ANOVA with Bonferroni-Dunn post hoc analysis. […]

Test [2] has as its system human peripheral blood mononuclear cells. Description: Endotoxin-induced secretion of mature IL-1β by peripheral blood mononuclear cells (ELISA). As for the experimental part: Reagents IL-18BPa isoform was expressed with a N-terminal (His)6 tag in Chinese hamster ovary cells and purified to homogeneity. The ability of IL-18BPa-(His)6 to neutralize IL-18 has been described (Kim et al., 2000). The ICE inhibitor (ICEi) Ac-Try-Val-Ala-Asp-chloromethylketone (YVAD) was purchased from Alexis Biochemicals (San Diego) and solubililized in DMSO at 10 mg/ml. The ICEi was diluted in Tyrode's solution before being used. On human peripheral blood mononuclear cells, the ICEi reduces endotoxin-induced secretion of mature IL-1β by 92%, as measured by ELISA (Cistron Biotechnology, Pine Brook, NJ).
(In general: ELISA stands for enzyme-linked immunosorbent assay.)

For test [3], the system named is human atrial trabeculae. Briefly: Developed force of human atrial trabeculae exposed to exogenous IL-18 under normoxic conditions. How it is done: Mature IL-18 (100 ng/ml) were added to atrial trabeculae throughout the 90 min experimental period. The vertical axis indicates the mean percent change from baseline developed force. The baseline was determined at the end of the equilibration period (not shown). (n=6). *P<0.05, **P<0.001 as compared to control at the same interval and for the remainder of the experimental period.
Isolated Atrial Trabeculae Patients undergoing elective coronary artery bypass surgery with a pump oxygenator require insertion of a canula into the right atrium. At that time, a small segment of the right atrial appendage is routinely excised and discarded. Trabeculae were obtained from this discarded tissue. Human atrial tissue was placed in oxygenated modified Tyrode's buffer solution at 4° C. […]
(§2) Experimental Design Trabeculae were equilibrated for 90 min to increase the baseline stretch force to 1,000 mg and to allow stabilization of developed force. […] Contractions were monitored by force transducers (Grass FT03) and recorded with a computerized preamplifier and digitizer (MacLab Quad Bridge, MacLab/8e, AD Instruments, Milford, Mass.) and continuously monitored with a Macintosh computer.
Next, the direct effect of exogenous IL-18 on myocardial contractile function was determined. […]

Test [4] deals with human atrial trabeculae. Briefly: Tissue creatine kinase (CK) activity in trabeculae exposed to TNFα, with or without IL-18BP. The following applies: 90 minutes of TNFα exposure alone; n=6; control 6801±276. How it is done: CK activity is expressed in units of CK activity per milligram of wet tissue weight. (n=6).
Preserved Trabecular CK Activity End reperfusion tissue (90 min) CK activity was determined as described (Kaplan et al., 1993). Tissues were homogenized in 100 vol of ice-cold isotonic extraction buffer (Cleveland et al., 1997, Kaplan et al., 1993). The assay was performed with a CK kit (Sigma) by using an automated spectrophotometer. Results are presented as units of CK activity per mg (wet weight of tissue).
Casases are often associated with apoptosis. To assess cellular viability in trabeculae exposed to TNFα, tissue intracellular creatine kinase (CK) was measured. In this assay, high CK levels indicate viable cells. As depicted in FIG. 8, control trabeculae which underwent 90 minutes of normoxic superfusion, contained 6801±276 units of CK activity per milligram of wet tissue weight. […] Trabeculae exposed to TNFα in the presence of IL-18BP contained 5605±212 units/mg of tissue. […] This was an unexpected finding since the magnitude of developed force at the end of the experimental period was similar for I/R and TNFα.

Test [5] has as its system human atrial trabeculae. Description: Developed force of human atrial trabeculae exposed to exogenous TNFα, with or without IL-18BP. The conditions noted are these: TNFα 1 ng/ml alone; after 90 minutes; n=5. How it is done: TNFα and IL-18BP were added to each bath change.
as §1, with “mmol/liter. The substrate-free Tyrode's solution contained choline chloride at 7 mmol/liter to maintain osmolarity. Unless otherwise indicated, chemicals and reagents were obtained from Sigma.” for “mmol/liter.”
as §2

Results on three substances are retold here after patent US20040234523A1, “Use of IL-18 inhibitors for the treatment and/or prevention of heart disease” (priority 2001, published 2004).

As to “Ac-Try-Val-Ala-Asp-chloromethylketone [ICEi]”, the results for the “postischemic contractile function, percent of control” value with human atrial trabeculae [1] (ICEi 10 μg/ml) and in the test on human atrial trabeculae [1] (ICEi 20 μg/ml) were 60% and 75.8%, respectively. In test [2], the “reduction of endotoxin-induced secretion of mature IL-1β” value turned out to be 92%.
As to “IL-18: exogenous mature IL-18 added to atrial trabeculae”, the “decrease in developed force” value with human atrial trabeculae [3] (IL-18 100 ng/ml, 90 minutes continuous exposure, normoxic, n=6) is 42%. In addition, in the test with human atrial trabeculae [3] (human atrial trabeculae), the “potency as myocardial depressant compared with TNFα” value is “not as potent a myocardial depressant as is TNFα”.
As for TNFα, the “preserved tissue CK activity” value in the test with human atrial trabeculae [4] is 3246±217 units/mg. The “decrease in developed force compared to control” value in the test on human atrial trabeculae [5] was found to be 58%.
